Measured values published in US20230330093A1, “APPLICATION OF NITROGEN-CONTAINING SATURATED HETEROCYCLIC COMPOUND” (SHANGHAI PHARMACEUTICALS HOLDING CO., LTD., priority 2020, published 2023).
Values joined by “and” are separate entries in the source; they are usually repeats but may differ in a detail not shown here. Equal entries are not always repeated.

Columns and labels:
[1] = system: rhesus monkeys with spontaneous chronic kidney disease (CKD); experiment: Effect on UACR (proteinuria), 8-week oral administration; type: in vivo, Macaca mulatta (Rhesus Macaque); details: for MALB / UACR: per animal + Mean ± SD; for UACR change rate: 8 weeks vs baseline, negative = decrease; for UACR Benefit assessment: per animal
Procedure: CKD-EPI rating […]-G3b, glomerular filtration rate eGFR: 30 59 ml/min/1.73 m^2; or moderate to severe increase in proteinuria (A2-A3): urine albumin/creatinine ratio (UACR)>15 mg/g-350 mg/g (4-6 hour urine collection), vs. age-matched control group 3±2 mg/g. In the trial, animals were brought in three stages. […] ELISA kit was used for NT-proBNP test. [table]

[2] = system: rhesus monkeys with spontaneous chronic kidney disease; experiment: Effect on glomerular filtration rate eGFRcreat-cys, 8-week administration; type: in vivo, Macaca mulatta (Rhesus Macaque); details: for eGFRcreat-cy, Change value: 1 mg/kg oral once a day
Procedure: CKD-EPI rating […]-G3b, glomerular filtration rate eGFR: 30 59 ml/min/1.73 m^2; or moderate to severe increase in proteinuria (A2-A3): urine albumin/creatinine ratio (UACR)>15 mg/g-350 mg/g (4-6 hour urine collection), vs. age-matched control group 3±2 mg/g. In the trial, animals were brought in three stages. […] Glomerular filtration rate […]: creatinine (Cr-P), urea nitrogen (BUN) and cystatin (CysC) were detected, and the eGFR value was obtained by calculation. It was performed once before the administration and once every two weeks after the administration. […] ELISA kit was used for NT-proBNP test. [table] Selected […] in each group: 30 59 ml/min/1.73 m^2. The changes in the glomerular filtration rate of W8 and baseline were analyzed.

[3] = 1 mg/kg oral once a day, 4 weeks
[4] = 1 mg/kg oral once a day, 4 weeks, mean
[5] = 1 mg/kg oral once a day, 8 weeks
[6] = 1 mg/kg oral once a day, 8 weeks, mean
[7] = 1 mg/kg oral once a day, Baseline
[8] = 1 mg/kg oral once a day, Baseline, mean
[9] = 2 mg/kg oral once a day, 4 weeks
[10] = 2 mg/kg oral once a day, 4 weeks, mean
[11] = 2 mg/kg oral once a day, 8 weeks
[12] = 2 mg/kg oral once a day, 8 weeks, mean
[13] = 2 mg/kg oral once a day, Baseline
[14] = 2 mg/kg oral once a day, Baseline, mean
[15] = 5 mg/kg oral once a day, 8 weeks
[16] = 5 mg/kg oral once a day, 8 weeks, mean
[17] = 5 mg/kg oral once a day, Baseline
[18] = 5 mg/kg oral once a day, Baseline, mean

## COC(=O)NCCCn1nc([C@@H](C)N(C(=O)[C@H]2CNCCO2)C2CC2)c2ccc(C)nc21.O=C(O)C[C@H](O)C(=O)O [malate of compound of Formula I]
[1]; [3]
  MALB: 4.6 mg/L and 34.1 mg/L and 1.4 mg/L and 5.1 mg/L and 1.3 mg/L
  UACR: 15.0 mg/g and 28.1 mg/g and 7.2 mg/g and 4.7 mg/g and 8.1 mg/g
[1]; [4]
  MALB: 9.3 ± 14.0 mg/L
  UACR: 12.6 mg/g
[1]; 1 mg/kg oral once a day, per animal + Mean ± SD (2/5 animals in statistics)
  UACR change rate: −39.14% and 8.44%
[1]; 1 mg/kg oral once a day, per animal + Mean ± SD (2/5 animals in statistics), mean
  UACR change rate: −15.35%
[1]; [5]
  UACR Benefit assessment: Benefit and No
  MALB: 5.2 mg/L and 38.4 mg/L and 0.8 mg/L and 7.6 mg/L and 1.1 mg/L
  UACR: 20.0 mg/g and 32.5 mg/g and 3.1 mg/g and 2.6 mg/g and 6.1 mg/g
[1]; [6]
  MALB: 10.6 ± 15.8 mg/L
  UACR: 12.9 ± 13.0 mg/g
[1]; 1 mg/kg oral once a day, 8 weeks, listed as malate of compound of formula I
  UACR Benefit assessment: The benefit was not obvious in one case
[1]; [7]
  MALB: 9.5 mg/L and 26.8 mg/L and 0.6 mg/L and 0.9 mg/L (2×)
  UACR: 32.8 mg/g and 30.0 mg/g and 2.9 mg/g and 1.6 mg/g and 4.1 mg/g
[1]; [8]
  MALB: 7.7 ± 11.3 mg/L
  UACR: 14.3 mg/g
[1]; 1 mg/kg qd, one animal
  UACR of W8 decreased by, compared with the baseline: 39%
[1]; [9]
  MALB: 1.0 mg/L and 12.5 mg/L and 5.3 mg/L and 103.7 mg/L and 2.4 mg/L
  UACR: 3.1 mg/g and 7.9 mg/g and 12.7 mg/g and 92.9 mg/g and 3.6 mg/g
[1]; [10]
  MALB: 25.0 ± 44.2 mg/L
  UACR: 24.0 mg/g
[1]; 2 mg/kg oral once a day, per animal + Mean ± SD (3/5 animals in statistics, p < 0.01 vs placebo)
  UACR change rate: −85.13% and −51.06% and −61.81%
[1]; 2 mg/kg oral once a day, per animal + Mean ± SD (3/5 animals in statistics, p < 0.01 vs placebo), mean
  UACR change rate: −66.00%
[1]; [11]
  UACR Benefit assessment: Benefit
  MALB: 3.0 mg/L and 0.4 mg/L and 0.6 mg/L and 69.5 mg/L and 3.6 mg/L
  UACR: 5.6 mg/g and 1.2 mg/g and 2.3 mg/g and 59.8 mg/g and 11.2 mg/g
[1]; [12]
  MALB: 15.4 ± 30.3 mg/L
  UACR: 16.0 ± 24.8 mg/g
[1]; 2 mg/kg oral once a day, 8 weeks, listed as malate of compound of formula I
  UACR Benefit assessment: all showed benefits
[1]; [13]
  MALB: 1.2 mg/L and 0.6 mg/L and 5.3 mg/L and 145.4 mg/L and 6.8 mg/L
  UACR: 3.5 mg/g and 2.5 mg/g and 15.3 mg/g and 122.1 mg/g and 29.3 mg/g
[1]; [14]
  MALB: 31.9 ± 63.5 mg/L
  UACR: 34.5 mg/g
[1]; 2 mg/kg qd, 3/5 animals with moderate to severe proteinuria, p<0.01 vs placebo
  W8 UACR decreased by on average, compared with the baseline: 66.00±17.42%
[1]; 2 mg/kg qd, three animals
  UACR of W8 decreased by, compared with the baseline: 50%-80%
[1]; 5 mg/kg oral once a day, per animal + Mean ± SD (4/6 animals in statistics, p < 0.05 vs placebo)
  UACR change rate: 16.75% and −64.10% and −68.62% and −72.14%
[1]; 5 mg/kg oral once a day, per animal + Mean ± SD (4/6 animals in statistics, p < 0.05 vs placebo), mean
  UACR change rate: −46.87 ± 36.93 %
[1]; [15]
  UACR Benefit assessment: all showed benefits and One animal showed no benefit and No and Benefit
  MALB: 72.4 mg/L and 1.2 mg/L and 3.4 mg/L and 112.3 mg/L and 0.3 mg/L and 21.6 mg/L
  UACR: 138.4 mg/g and 5.7 mg/g and 9.1 mg/g and 87.7 mg/g and 1.8 mg/g and 35.1 mg/g
[1]; [16]
  MALB: 35.2 ± 46.7 mg/L
  UACR: 46.3 ± 55.4 mg/g
[1]; [17]
  MALB: 93.2 mg/L and 4.3 mg/L and 46.5 mg/L and 59.3 mg/L and 2.1 mg/L and 26.0 mg/L
  UACR: 118.5 mg/g and 10.5 mg/g and 25.4 mg/g and 279.3 mg/g and 2.4 mg/g and 125.8 mg/g
[1]; [18]
  MALB: 38.6 ± 35.0 mg/L
  UACR: 93.7 ± 105.9 mg/g
[1]; 5 mg/kg qd, 3 animals
  UACR of W8 decreased by, compared with the baseline: 60%-70%
[1]; 5 mg/kg qd, 4/6 animals with moderate-to-severe proteinuria, p<0.05 vs placebo
  W8 UACR decreased by on average, compared with the baseline: 46.87±36.93%
[1]; 2-5 mg/kg qd for 8 weeks
  effect on UACR and eGFRcreat-cys compared with Valsartan: equivalent to the Valsartan group
  proteinuria (UACR) improvement: can be significantly improved
[2]; 2 weeks vs baseline, per animal + Mean ± SD
  eGFRcreat-cy, Change value: 1 ml/min/1.73 m^2 and 2 ml/min/1.73 m^2 and −3 ml/min/1.73 m^2 and −2 ml/min/1.73 m^2 and 4 ml/min/1.73 m^2
[2]; 2 weeks vs baseline, per animal + Mean ± SD, mean
  eGFRcreat-cy, Change value: 0 ± 3 ml/min/1.73 m^2
[2]; 4 weeks vs baseline, per animal + Mean ± SD
  eGFRcreat-cy, Change value: 8 ml/min/1.73 m^2 and 10 ml/min/1.73 m^2 and 3 ml/min/1.73 m^2 and 1 ml/min/1.73 m^2 and 5 ml/min/1.73 m^2
[2]; 4 weeks vs baseline, per animal + Mean ± SD, mean
  eGFRcreat-cy, Change value: 5 ± 4 ml/min/1.73 m^2
[2]; 6 weeks vs baseline, per animal + Mean ± SD
  eGFRcreat-cy, Change value: 7 ml/min/1.73 m^2 and 3 ml/min/1.73 m^2 (3×) and 6 ml/min/1.73 m^2
[2]; 6 weeks vs baseline, per animal + Mean ± SD, mean
  eGFRcreat-cy, Change value: 4 ± 2 ml/min/1.73 m^2
[2]; 8 weeks vs baseline, per animal + Mean ± SD (no statistical change vs placebo)
  eGFRcreat-cy, Change value: 3±4 ml/min/1.73 m^2 and 7 ml/min/1.73 m^2 and 6 ml/min/1.73 m^2 and 0 ml/min/1.73 m^2 and 2 ml/min/1.73 m^2 and 5 ml/min/1.73 m^2
[2]; Baseline, per animal + Mean ± SD
  eGFRcreat-cy, Change value: 0 ml/min/1.73 m^2
[2]; Baseline, per animal + Mean ± SD, mean
  eGFRcreat-cy, Change value: 0 ± 0 ml/min/1.73 m^2
[2]; 1 mg/kg qd (n = 5), 2 weeks
  eGFRcreat-cys: 53 ml/min/1.73 m^2 and 56 ml/min/1.73 m^2 and 50 ml/min/1.73 m^2 and 48 ml/min/1.73 m^2
